Patent publication US20120245137A1 (Zalicus Pharmaceuticals Ltd., priority 2009, published 2012)

Tests used:
Assay type in all cases: cell-based
[1] = biological target: human α1G T-type channels (Homo sapiens, UniProt O43497); experiment: T-type calcium channel block, whole cell patch clamp, α1G; conditions: HEK cells stably expressing human α1G; mainly non-inactivated protocol; values above 10,000 nM represented as 10000
In short: (§1)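 Whole-cell T-type currents, stably transfected HEK 293 (human α1G/α1H), passage 4-20. Cmpd in external soln, 0.1-0.01% DMSO, local gravity perfusion after ~10 min rest. Two voltage protocols: non-inactivating (resting block), inactivation (voltage-dependent block).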

[2] = biological target: human α1H T-type channels (Homo sapiens, UniProt O95180); experiment: T-type calcium channel block, whole cell patch clamp, α1H; conditions: HEK cells stably expressing human α1H; mainly non-inactivated protocol; values above 10,000 nM represented as 10000
In short: as §1

[3] = biological target: N-type calcium channel subunits (α1B, α2δ, and β3a) (Homo sapiens, UniProt Q00975); experiment: Block of Cav2.2 channel, whole cell voltage clamp, manual and PatchXpress; conditions: Table 5; table follows Assay Example 3 (whole cell voltage clamp / PatchXpress); assay not given
In short: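 Percent block taken as current amplitude ratio with versus without compound, applied in rising doses; IC50 fitted where one cell received multiple doses. Protocol: 50 ms pulses to +20 mV at 0.067 Hz from […] or −90 mV holding; P/n leak subtraction, no junction-potential correction; manual and PatchXpress recordings.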

Chain of human α1H T-type channels (O95180 whole entry): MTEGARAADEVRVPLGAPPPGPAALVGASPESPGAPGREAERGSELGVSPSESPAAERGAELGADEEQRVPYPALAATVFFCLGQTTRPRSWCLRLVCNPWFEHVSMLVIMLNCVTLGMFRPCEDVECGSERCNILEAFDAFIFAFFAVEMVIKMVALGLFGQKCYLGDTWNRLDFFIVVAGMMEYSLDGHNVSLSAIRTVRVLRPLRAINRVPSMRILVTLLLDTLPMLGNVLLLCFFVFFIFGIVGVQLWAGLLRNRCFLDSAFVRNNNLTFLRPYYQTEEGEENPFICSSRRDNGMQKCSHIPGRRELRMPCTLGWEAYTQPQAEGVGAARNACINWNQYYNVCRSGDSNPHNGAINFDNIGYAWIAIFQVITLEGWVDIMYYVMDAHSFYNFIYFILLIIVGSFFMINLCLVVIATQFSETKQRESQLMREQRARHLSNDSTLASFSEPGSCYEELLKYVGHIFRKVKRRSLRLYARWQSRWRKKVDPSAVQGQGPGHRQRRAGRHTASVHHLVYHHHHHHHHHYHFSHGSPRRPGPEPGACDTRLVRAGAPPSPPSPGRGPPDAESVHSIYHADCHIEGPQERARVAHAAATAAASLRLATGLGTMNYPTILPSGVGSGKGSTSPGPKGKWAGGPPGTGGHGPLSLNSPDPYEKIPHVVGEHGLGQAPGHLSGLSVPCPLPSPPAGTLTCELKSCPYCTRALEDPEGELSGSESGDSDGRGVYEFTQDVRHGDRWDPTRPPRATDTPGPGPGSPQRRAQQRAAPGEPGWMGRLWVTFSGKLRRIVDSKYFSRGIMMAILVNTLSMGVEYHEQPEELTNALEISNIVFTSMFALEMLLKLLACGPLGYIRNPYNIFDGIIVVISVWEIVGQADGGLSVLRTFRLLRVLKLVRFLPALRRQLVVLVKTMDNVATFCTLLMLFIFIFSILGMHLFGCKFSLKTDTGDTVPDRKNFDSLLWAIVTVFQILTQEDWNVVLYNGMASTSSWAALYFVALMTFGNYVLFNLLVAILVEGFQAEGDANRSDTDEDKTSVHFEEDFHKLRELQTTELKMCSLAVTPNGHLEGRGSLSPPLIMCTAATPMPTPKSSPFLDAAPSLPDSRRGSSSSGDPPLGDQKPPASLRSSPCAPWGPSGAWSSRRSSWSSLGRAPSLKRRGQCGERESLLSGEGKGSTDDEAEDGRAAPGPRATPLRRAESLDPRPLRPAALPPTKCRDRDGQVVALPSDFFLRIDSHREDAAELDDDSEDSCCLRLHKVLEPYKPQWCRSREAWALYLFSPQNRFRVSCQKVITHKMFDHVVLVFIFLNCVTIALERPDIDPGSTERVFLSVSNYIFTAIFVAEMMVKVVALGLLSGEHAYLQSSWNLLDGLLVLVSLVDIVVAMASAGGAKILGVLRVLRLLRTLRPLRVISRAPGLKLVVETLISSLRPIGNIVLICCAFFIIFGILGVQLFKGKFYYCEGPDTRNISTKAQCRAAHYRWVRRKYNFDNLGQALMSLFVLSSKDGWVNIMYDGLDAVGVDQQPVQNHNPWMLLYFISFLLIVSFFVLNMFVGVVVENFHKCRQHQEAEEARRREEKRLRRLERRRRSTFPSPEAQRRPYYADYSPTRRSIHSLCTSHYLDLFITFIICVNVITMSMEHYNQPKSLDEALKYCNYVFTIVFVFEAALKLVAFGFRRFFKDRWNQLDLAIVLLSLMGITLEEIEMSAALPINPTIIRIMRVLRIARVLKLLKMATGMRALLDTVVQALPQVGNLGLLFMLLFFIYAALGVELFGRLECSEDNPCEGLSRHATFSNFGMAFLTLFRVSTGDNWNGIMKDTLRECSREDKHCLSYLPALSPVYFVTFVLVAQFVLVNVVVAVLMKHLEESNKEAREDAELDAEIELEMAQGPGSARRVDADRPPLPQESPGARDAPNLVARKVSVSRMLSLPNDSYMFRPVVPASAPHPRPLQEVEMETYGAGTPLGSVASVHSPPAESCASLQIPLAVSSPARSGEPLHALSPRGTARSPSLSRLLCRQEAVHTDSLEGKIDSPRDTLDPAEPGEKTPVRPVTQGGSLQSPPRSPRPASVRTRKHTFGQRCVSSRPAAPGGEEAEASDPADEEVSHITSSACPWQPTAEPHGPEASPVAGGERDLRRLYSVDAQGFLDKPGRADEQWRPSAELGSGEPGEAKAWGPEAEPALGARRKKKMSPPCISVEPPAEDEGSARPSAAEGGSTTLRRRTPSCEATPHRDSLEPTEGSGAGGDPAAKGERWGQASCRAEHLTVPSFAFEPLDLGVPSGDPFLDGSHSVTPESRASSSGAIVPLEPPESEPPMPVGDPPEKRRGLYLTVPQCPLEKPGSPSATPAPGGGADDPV
Chain of human α1G T-type channels (O43497 whole entry, the tested form may be a part): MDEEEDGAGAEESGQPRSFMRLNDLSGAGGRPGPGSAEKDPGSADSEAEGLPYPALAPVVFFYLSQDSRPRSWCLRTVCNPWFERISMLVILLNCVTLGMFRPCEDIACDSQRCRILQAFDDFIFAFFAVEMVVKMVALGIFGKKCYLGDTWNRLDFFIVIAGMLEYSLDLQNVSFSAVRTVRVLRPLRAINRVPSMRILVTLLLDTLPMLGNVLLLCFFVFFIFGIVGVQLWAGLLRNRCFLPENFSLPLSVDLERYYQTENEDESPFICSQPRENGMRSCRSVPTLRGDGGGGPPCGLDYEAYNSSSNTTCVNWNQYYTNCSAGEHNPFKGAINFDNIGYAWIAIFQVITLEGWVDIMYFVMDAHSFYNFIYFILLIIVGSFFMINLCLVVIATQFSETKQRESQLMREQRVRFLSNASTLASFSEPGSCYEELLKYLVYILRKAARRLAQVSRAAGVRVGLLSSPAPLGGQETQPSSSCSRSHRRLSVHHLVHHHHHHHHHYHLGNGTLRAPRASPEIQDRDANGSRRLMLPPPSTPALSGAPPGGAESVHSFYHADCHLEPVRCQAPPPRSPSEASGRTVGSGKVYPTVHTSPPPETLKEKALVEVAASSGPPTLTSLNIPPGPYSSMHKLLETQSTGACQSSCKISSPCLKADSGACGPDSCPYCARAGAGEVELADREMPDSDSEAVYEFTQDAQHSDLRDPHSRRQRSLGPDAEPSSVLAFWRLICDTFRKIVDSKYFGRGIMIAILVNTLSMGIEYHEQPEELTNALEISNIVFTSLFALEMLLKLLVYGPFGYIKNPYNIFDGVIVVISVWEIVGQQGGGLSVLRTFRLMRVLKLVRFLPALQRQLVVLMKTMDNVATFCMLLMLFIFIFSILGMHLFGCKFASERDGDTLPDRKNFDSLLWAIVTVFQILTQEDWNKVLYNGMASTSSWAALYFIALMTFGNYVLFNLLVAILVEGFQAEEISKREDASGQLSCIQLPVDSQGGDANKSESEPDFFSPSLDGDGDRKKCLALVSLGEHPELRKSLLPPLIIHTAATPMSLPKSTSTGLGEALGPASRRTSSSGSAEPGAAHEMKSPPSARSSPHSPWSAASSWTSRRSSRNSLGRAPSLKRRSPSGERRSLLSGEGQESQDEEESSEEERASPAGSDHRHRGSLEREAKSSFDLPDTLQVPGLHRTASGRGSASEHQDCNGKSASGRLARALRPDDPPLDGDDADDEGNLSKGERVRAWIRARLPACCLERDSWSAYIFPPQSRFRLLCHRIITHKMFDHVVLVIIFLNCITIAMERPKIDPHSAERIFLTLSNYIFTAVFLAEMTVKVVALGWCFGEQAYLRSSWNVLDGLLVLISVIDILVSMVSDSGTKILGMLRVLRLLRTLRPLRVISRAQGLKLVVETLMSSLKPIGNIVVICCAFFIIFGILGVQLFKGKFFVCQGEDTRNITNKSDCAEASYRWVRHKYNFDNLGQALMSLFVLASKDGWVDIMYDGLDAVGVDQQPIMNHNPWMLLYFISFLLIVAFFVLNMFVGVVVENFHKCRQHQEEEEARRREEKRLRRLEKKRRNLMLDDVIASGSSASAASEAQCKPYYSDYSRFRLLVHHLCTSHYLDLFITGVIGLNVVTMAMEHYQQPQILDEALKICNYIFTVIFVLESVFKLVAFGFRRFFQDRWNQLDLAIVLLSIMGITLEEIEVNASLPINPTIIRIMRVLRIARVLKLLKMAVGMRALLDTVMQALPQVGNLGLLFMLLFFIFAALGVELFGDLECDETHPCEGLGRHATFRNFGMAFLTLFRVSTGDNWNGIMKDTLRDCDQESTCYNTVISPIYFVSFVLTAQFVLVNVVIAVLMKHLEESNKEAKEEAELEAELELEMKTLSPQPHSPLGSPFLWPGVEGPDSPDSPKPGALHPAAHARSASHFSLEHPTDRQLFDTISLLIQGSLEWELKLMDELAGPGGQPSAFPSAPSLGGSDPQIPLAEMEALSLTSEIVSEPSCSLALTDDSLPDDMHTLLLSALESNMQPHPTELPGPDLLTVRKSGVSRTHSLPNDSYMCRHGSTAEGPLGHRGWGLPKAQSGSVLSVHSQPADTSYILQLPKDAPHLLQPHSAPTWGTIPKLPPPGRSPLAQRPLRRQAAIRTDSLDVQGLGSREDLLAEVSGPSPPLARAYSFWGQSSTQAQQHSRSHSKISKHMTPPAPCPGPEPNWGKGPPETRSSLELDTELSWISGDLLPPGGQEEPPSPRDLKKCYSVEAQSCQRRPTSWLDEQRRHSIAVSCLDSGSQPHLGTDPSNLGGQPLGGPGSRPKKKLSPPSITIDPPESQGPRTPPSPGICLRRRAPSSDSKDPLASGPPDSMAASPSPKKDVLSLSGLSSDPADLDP

Structure (SMILES) | IC50 [1] | IC50 [2] | IC50 [3]
O=C(N[C@H]1CC[C@@](F)(S(=O)(=O)c2cccc(C(F)(F)F)c2)CC1)[C@@H]1C[C@@H](Cc2ccc(F)cc2)CN1 [Compound 287, (2S,4R)-N-((1S,4R)-4-fluoro-4-(3-(trifluoromethyl)phenylsulfonyl)cyclohexyl)-4-(4-fluorobenzyl)pyrrolidine-2-carboxamide] | 6500 nM | 1130 nM | 310 nM
O=C(N[C@H]1CC[C@@](F)(S(=O)(=O)c2cccc(C(F)(F)F)c2)CC1)[C@H]1CC[C@@H](c2ccccc2)N1 [Compound 288, (2R,5S)-N-((1S,4S)-4-fluoro-4-(3-(trifluoromethyl)phenylsulfonyl)cyclohexyl)-5-phenylpyrrolidine-2-carboxamide] | > 10000 nM | 3260 nM | 640 nM
O=C(N[C@H]1CC[C@@](F)(S(=O)(=O)c2cccc(C(F)(F)F)c2)CC1)[C@@H]1CC[C@H](c2ccccc2)N1 [Compound 289] | 1400 nM | 1040 nM | 540 nM
O=C1c2ccc(C(F)(F)F)nc2CN1[C@H]1CC[C@@](F)(S(=O)(=O)c2cccc(C(F)(F)F)c2)CC1 [Compound 290, 6-((1S,4S)-4-f1uoro-4-(3-(trifluoromethyl)phenylsulfonyl)cyclohexyl)-2-(trifluoromethyl)-6,dihydro-5Hpyrrolo[3,4-b]pyridin-5-one] | 1180 nM | 570 nM | 420 nM
CC(C)(C(=O)N[C@H]1CC[C@@](F)(S(=O)(=O)c2cccc(C(F)(F)F)c2)CC1)S(=O)(=O)c1cccc(C(F)(F)F)c1 [Compound 291, N-((1S,4S)-4-fluoro-4-(3-(trifluoromethyl)phenylsulfonyl)cyclohexyl)-2-methyl-2-(3-(trifluoromethyl)phenylsulfonyl)propanamide] | > 10000 nM | 6060 nM | 50 nM
Cc1nn(C)c(C)c1S(=O)(=O)N[C@H]1CC[C@@](F)(S(=O)(=O)c2cccc(C(F)(F)F)c2)CC1 [Compound 293, N-((1S,4S)-4-fluoro-4-(3-(trifluoromethyl)phenylsulfonyl)cyclohexyl)-1,3,5-trimethyl-1H-pyrazole-4-sulfonamide] | 4770 nM | 1850 nM | 1630 nM
O=S(=O)(CCC(F)(F)F)N[C@H]1CC[C@@](F)(S(=O)(=O)c2cccc(C(F)(F)F)c2)CC1 [Compound 295, 3,3,3-trifluoro-N-((1S,4S)-4-fluoro-4-(3-(trifluoromethyl)phenylsulfonyl)cyclohexyl) propane-1-sulfonamide] | 630 nM | 320 nM | 790 nM
Cn1cnc(S(=O)(=O)N[C@H]2CC[C@@](F)(S(=O)(=O)c3cccc(C(F)(F)F)c3)CC2)c1 [Compound 296, N-((1S,4S)-4-fluoro-4-(3-(trifluoromethyl)phenylsulfonyl)cyclohexyl)-1-methyl-1H-imidazole-4-sulfonamide] | 2830 nM | 850 nM | 4230 nM
O=S(=O)(N[C@H]1CC[C@@](F)(S(=O)(=O)c2cccc(C(F)(F)F)c2)CC1)c1ccc(C(F)(F)F)cc1Cl [Compound 297, 2-chloro-N-((1S,4S)-4-fluoro-4-(3-(trifluoromethyl)phenylsulfonyl)cyclohexyl)-4-(trifluoromethyl) benzenesulfonamide] | 850 nM | 300 nM | 720 nM
Cc1noc(C)c1S(=O)(=O)N[C@H]1CC[C@@](F)(S(=O)(=O)c2cccc(C(F)(F)F)c2)CC1 [Compound 298, N-((1S,4S)-4-fluoro-4-(3-(trifluoromethyl)phenylsulfonyl)cyclohexyl)-3,5-dimethylisoxazole-4-sulfonamide] | 880 nM | 240 nM | 850 nM
O=S(=O)(N[C@H]1CC[C@@](F)(S(=O)(=O)c2cccc(C(F)(F)F)c2)CC1)c1ccccc1C(F)(F)F [Compound 299, N-((1S,4S)-4-fluoro-4-(3-(trifluoromethyl)phenylsulfonyl)cyclohexyl)-2-(trifluoromethyl) benzenesulfonamide] | 640 nM | 210 nM | 730 nM
O=S(=O)(N[C@H]1CC[C@@](F)(S(=O)(=O)c2cccc(C(F)(F)F)c2)CC1)c1cccc(C(F)(F)F)c1 [Compound 300, N-((1S,4S)-4-fluoro-4-(3-(trifluoromethyl)phenylsulfonyl)cyclohexyl)-3-(trifluoromethyl) benzenesulfonamide] | 280 nM | 430 nM | 700 nM
O=S(=O)(N[C@H]1CC[C@@](F)(S(=O)(=O)c2cccc(C(F)(F)F)c2)CC1)c1ccc(OC(F)(F)F)cc1 [Compound 302, N-((1S,4S)-4-fluoro-4-(3-(trifluoromethyl)phenylsultonyl)cyclohexyl)-4-(trifluoromethoxy) benzenesulfonamide] | 970 nM | 850 nM | 400 nM
CC1(C(=O)N[C@H]2CC[C@@](F)(S(=O)(=O)c3cccc(C(F)(F)F)c3)CC2)CC1 [Compound 303, N-((1S,4S)-4-fluoro-4-(3-(tritluoromethyl)phenylsulfonyl)cyclohexyl)-1-methylcyclopropane carboxamide] | 4340 nM | 4150 nM | 180 nM
O=C(N[C@H]1CC[C@@](F)(S(=O)(=O)c2cccc(C(F)(F)F)c2)CC1)[C@H]1C[C@@H]1c1ccccc1 [Compound 304, (1S,2S)-N-((1S,4R)-4-fluoro-4-(3-(trifluoromethyl)phenylsulfonyl)cyclohexyl)-2-phenylcyclopropane carboxamide] | 1550 nM | 2440 nM | 230 nM
O=C(N[C@H]1CC[C@@](F)(S(=O)(=O)c2cccc(C(F)(F)F)c2)CC1)C1CCC(F)(F)CC1 [Compound 305, 4,4-difluoro-N-((1S,4S)-4-fluoro-4-(3-(trifluoromethyl)phenylsulfonyl)cyclohexyl) cyclohexanecarboxamide] | > 10000 nM | > 10000 nM | 300 nM
CC(C)(N)CN(C(=O)C(F)(F)F)[C@H]1CC[C@@](F)(S(=O)(=O)c2cccc(C(F)(F)F)c2)CC1 [Compound 306, N-(2-amino-2-methylpropyl)-2,2,2-trifluoro-N-((1S,4S)-4-tluoro-4-(3-(trifIuoromethyl)phenylsulfonyl)cyclohexyl) acetamide] | 4960 nM | 7350 nM | 530 nM
Cn1nc(C(F)(F)F)cc1C(=O)NC1(C)CCC(S(=O)(=O)c2cccc(C(F)(F)F)c2)CC1 (stereo not drawn) [Compound 307, 1-methyl-N-(1-methyl-4-(3-(trifluoromethyl)phenylsulfonyl)cyclohexyl)-3-(tritluoromethyl)-1H-pyrazole-5-carboxamide] | 2410 nM | 1540 nM | 3120 nM
CC1(NC(=O)c2cc(C(F)(F)F)ccn2)CCC(S(=O)(=O)c2cccc(C(F)(F)F)c2)CC1 (stereo not drawn) [Compound 308, N-(1-methyl-4-(3-(trifluoromethyl)phenylsulfonyl)cyclohexyl)-4-(trifluoromethyl)picolinamide] | 4200 nM | 2270 nM | 1450 nM
CC1(NC(=O)c2ccc(F)c(C(F)(F)F)c2)CCC(S(=O)(=O)c2cccc(C(F)(F)F)c2)CC1 (stereo not drawn) [Compound 309, 4-fluoro-N-(1-methyl-4-(3-(trifluoromethyl)phenylsulfonyl)cyclohexyl)-3-(trifluoromethyl)benzamide] | 9900 nM | > 10000 nM | 1390 nM
CC1(NC(=O)c2ccc(F)c(Cl)c2)CCC(S(=O)(=O)c2cccc(C(F)(F)F)c2)CC1 (stereo not drawn) [Compound 310, 3-chloro-4-fluoro-N-(1-methyl-4-(3-(trifluoromethyl)phenylsulfonyl)cyclohexyl) benzamide] | 6340 nM | 5710 nM | 1160 nM
CC1(NC(=O)c2ccc(C(F)(F)F)cc2S(C)(=O)=O)CCC(S(=O)(=O)c2cccc(C(F)(F)F)c2)CC1 (stereo not drawn) [Compound 311, N-(1-methyl-4-(3-(trifluoromethyl)phenylsulfonyl)cyclohexyl)-2-(methylsulfonyl)-4-(trifluoromethyl)benzamide] | 5080 nM | 8500 nM | 650 nM
CC1(NC(=O)c2ccc(C(F)(F)F)cn2)CCC(S(=O)(=O)c2cccc(C(F)(F)F)c2)CC1 (stereo not drawn) [Compound 312, N-(1-methyl-4-(3-(trifluoromethyl)phenylsulfonyl)cyclohexyl)-5-(trifluoromethyl)picolinamide] | 2960 nM | 1940 nM | 1020 nM
COc1cc(C(=O)NC2(C)CCC(S(=O)(=O)c3cccc(C(F)(F)F)c3)CC2)cc(Cl)n1 (stereo not drawn) [Compound 313, 2-chloro-6-methoxy-N-(1-methyl-4-(3-(trifluoromethyl)phenylsulfonyl)cyclohexyl) isonicotinamide] | > 10000 nM | > 10000 nM | 1980 nM
CC1(NC(=O)c2ccc(C(F)(F)F)nc2S(C)(=O)=O)CCC(S(=O)(=O)c2cccc(C(F)(F)F)c2)CC1 (stereo not drawn) [Compound 316, N-(1-methyl-4-(3-(trifluoromethyl)phenylsulfonyl)cyclohexyl)-2-(methylsulfonyl)-6-(trifluoromethyl)nicotinamide] | 3990 nM | 2910 nM | 3120 nM
CC1(NC(=O)c2ncc(C(F)(F)F)cc2S(C)(=O)=O)CCC(S(=O)(=O)c2cccc(C(F)(F)F)c2)CC1 (stereo not drawn) [Compound 317, N-(1-methyl-4-(3-(trifluoromethyl)phenylsulfonyl)cyclohexyl)-3-(methylsulfonyl)-5-(trifluoromethyl)picolinamide] | 1140 nM | 860 nM | 2690 nM
